Test results as given in PubChem BioAssay AID248 (DTP/NCI, 2004).
Toxic doses and inconclusive results are not listed. Cut-off read from the data, not from the text of the source: active = T/C of 150% or more; inactive = T/C below 125%.

Test system: L1210 leukemia ip in BDF1 mice, survival T/C
Experiment: NCI In Vivo Anticancer Drug Screen. Data for tumor model L1210 Leukemia (intraperitoneal) in B6D2F1 (BDF1) mice
Conditions: endpoint: mean survival time, higher = longer survival
Outline: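 Antitumor effect is assessed in tumor-bearing animals. Survival in the compound arm is compared with a vehicle-dosed control arm and expressed as their quotient.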

[1] = dose: 50.0 mg/kg/injection, schedule: Q01DX009 (ip), vehicle: Klucel (hydroxypropylcellulose) (HPC)
[2] = dose: 100.0 mg/kg/injection, schedule: Q01DX009 (ip), vehicle: Klucel (hydroxypropylcellulose) (HPC)
[3] = dose: 200.0 mg/kg/injection, schedule: Q01DX009 (ip), vehicle: Klucel (hydroxypropylcellulose) (HPC)
[4] = dose: 400.0 mg/kg/injection, schedule: Q01DX009 (ip), vehicle: Klucel (hydroxypropylcellulose) (HPC)
[5] = dose: 100.0 mg/kg/injection, schedule: Q04DX003 (ip), vehicle: saline with Tween-80
[6] = dose: 200.0 mg/kg/injection, schedule: Q04DX003 (ip), vehicle: saline with Tween-80
[7] = dose: 100.0 mg/kg/injection, schedule: Q04DX003 (ip), vehicle: Klucel (hydroxypropylcellulose) (HPC)
[8] = dose: 200.0 mg/kg/injection, schedule: Q04DX003 (ip), vehicle: Klucel (hydroxypropylcellulose) (HPC)
[9] = dose: 400.0 mg/kg/injection, schedule: Q04DX003 (ip), vehicle: Klucel (hydroxypropylcellulose) (HPC)
[10] = dose: 100.0 mg/kg/injection, schedule: Q01DX009 (ip), vehicle: saline with Tween-80
[11] = dose: 200.0 mg/kg/injection, schedule: Q01DX009 (ip), vehicle: saline with Tween-80
[12] = dose: 400.0 mg/kg/injection, schedule: Q01DX009 (ip), vehicle: saline with Tween-80

Measured: T/C

O=[N+]([O-])c1cc(Cl)c(O)c([N+](=O)[O-])c1O
inactive: dose: 75.0 mg/kg/injection, schedule: Q01DX001 (ip), vehicle: carboxymethylcellulose (CMC) 103 % of control

COC(=O)C1C2CCC1(C)C(O)C2 (stereo not drawn)
inactive: dose: 75.0 mg/kg/injection, schedule: Q01DX009 (ip), vehicle: saline with Tween-80 96 % of control | dose: 150.0 mg/kg/injection, schedule: Q01DX009 (ip), vehicle: saline with Tween-80 107 % of control | dose: 300.0 mg/kg/injection, schedule: Q01DX009 (ip), vehicle: saline with Tween-80 100 % of control

C/C(=N/Nc1ccc([N+](=O)[O-])cc1)c1ccncc1
inactive: [1] 101 % of control | [2] 111 % of control | [3] 89 % of control | [4] 105 % of control

CCCCCCCCCCCCCCCCCCCC
inactive: dose: 25.0 mg/kg/injection, schedule: Q01DX009 (ip), vehicle: other 109 % of control | dose: 50.0 mg/kg/injection, schedule: Q01DX009 (ip), vehicle: other 101 % of control | dose: 100.0 mg/kg/injection, schedule: Q01DX009 (ip), vehicle: other 93 % of control

CC(=O)CCCCC(C)=O
inactive: dose: 100.0 mg/kg/injection, schedule: Q01DX001 (ip), vehicle: saline 98 % of control | dose: 200.0 mg/kg/injection, schedule: Q01DX001 (ip), vehicle: saline 101 % of control | dose: 400.0 mg/kg/injection, schedule: Q01DX001 (ip), vehicle: saline 104 % of control

C#CCOCCBr
inactive: [5] 97 % of control | [6] 95 % of control

CCCCCCCCCCCCCCCCCC(=O)Oc1ccc(OCc2ccccc2)cc1
inactive: [2] 105 % of control | [3] 95 % of control | [4] 97 % of control

Cc1ccc(NS(=O)(=O)c2ccccc2)cc1Cl
inactive: [2] 106 % of control | [7] 108 % of control | [3] 109 % of control | [8] 98 % of control | [4] 98 % of control | [9] 97 % of control

CC(=O)OCC(=O)[C@@]1(O)CC[C@H]2[C@@H]3CCC4=CC(=O)CC[C@]4(C)[C@H]3C(=O)C[C@@]21C
inactive: dose: 12.5 mg/kg/injection, schedule: Q01DX015 (sc), vehicle: steriod suspending solution 102 % of control | dose: 25.0 mg/kg/injection, schedule: Q01DX015 (sc), vehicle: steriod suspending solution 100 % of control | dose: 50.0 mg/kg/injection, schedule: Q01DX015 (sc), vehicle: steriod suspending solution 100 % of control | dose: 100.0 mg/kg/injection, schedule: Q01DX001 (sc), vehicle: steriod suspending solution 101 % of control | dose: 100.0 mg/kg/injection, schedule: Q01DX015 (sc), vehicle: steriod suspending solution 107 % of control | dose: 100.0 mg/kg/injection, schedule: Q04DX003 (sc), vehicle: steriod suspending solution 108 % of control | dose: 200.0 mg/kg/injection, schedule: Q01DX001 (sc), vehicle: steriod suspending solution 92 % of control | dose: 200.0 mg/kg/injection, schedule: Q01DX015 (sc), vehicle: steriod suspending solution 110 % of control | dose: 200.0 mg/kg/injection, schedule: Q04DX003 (sc), vehicle: steriod suspending solution 102 % of control | dose: 400.0 mg/kg/injection, schedule: Q01DX001 (sc), vehicle: steriod suspending solution 111 % of control | dose: 400.0 mg/kg/injection, schedule: Q01DX015 (sc), vehicle: steriod suspending solution 104 % of control | dose: 400.0 mg/kg/injection, schedule: Q04DX003 (sc), vehicle: steriod suspending solution 98 % of control

CON(C)S(=O)(=O)c1ccccc1
inactive: [7] 103 % of control | [8] 97 % of control | [9] 95 % of control

CCOC(=O)c1cnc(SCc2ccccc2)nc1Nc1ccccc1Cl
inactive: [5] 94 % of control | [6] 88 % of control

CCOC(=O)c1ccc(N=Cc2ccccc2O)cc1
inactive: [1] 98 % of control | dose: 75.0 mg/kg/injection, schedule: Q01DX001 (ip), vehicle: Klucel (hydroxypropylcellulose) (HPC) 88 % of control | [2] 89 % of control | dose: 150.0 mg/kg/injection, schedule: Q01DX001 (ip), vehicle: Klucel (hydroxypropylcellulose) (HPC) 105 % of control | [3] 106 % of control | dose: 300.0 mg/kg/injection, schedule: Q01DX001 (ip), vehicle: Klucel (hydroxypropylcellulose) (HPC) 88 % of control

COc1ccc(C(C#N)N2CCCC2)cc1 (stereo not drawn)
inactive: dose: 6.25 mg/kg/injection, schedule: Q01DX009 (ip), vehicle: other 95 % of control | dose: 6.25 mg/kg/injection, schedule: Q04DX003 (ip), vehicle: other 98 % of control | dose: 12.5 mg/kg/injection, schedule: Q01DX009 (ip), vehicle: other 95 % of control | dose: 12.5 mg/kg/injection, schedule: Q04DX003 (ip), vehicle: other 104 % of control | dose: 25.0 mg/kg/injection, schedule: Q04DX003 (ip), vehicle: other 96 % of control

CC[N+](C)(CC)Cc1cc(C(C)=O)c(C)o1
inactive: dose: 12.5 mg/kg/injection, schedule: Q01DX009 (ip), vehicle: saline with Tween-80 90 % of control | dose: 25.0 mg/kg/injection, schedule: Q01DX009 (ip), vehicle: saline with Tween-80 95 % of control | dose: 50.0 mg/kg/injection, schedule: Q01DX009 (ip), vehicle: saline with Tween-80 93 % of control

CCOC(=O)CN=NNc1[nH]ncc1C(N)=O
inactive: dose: 100.0 mg/kg/injection, schedule: Q01DX001 (ip), vehicle: other 102 % of control | [10] 115 % of control | dose: 100.0 mg/kg/injection, schedule: Q04DX003 (ip), vehicle: other 101 % of control | dose: 200.0 mg/kg/injection, schedule: Q01DX001 (ip), vehicle: other 104 % of control | [11] 115 % of control | dose: 200.0 mg/kg/injection, schedule: Q04DX003 (ip), vehicle: other 113 % of control | dose: 400.0 mg/kg/injection, schedule: Q01DX001 (ip), vehicle: other 105 % of control | [12] 116 % of control | dose: 400.0 mg/kg/injection, schedule: Q04DX003 (ip), vehicle: other 104 % of control

CSc1nc2ccc([N+](=O)[O-])cc2s1
inactive: dose: 100.0 mg/kg/injection, schedule: Q04DX002 (ip), vehicle: Klucel (hydroxypropylcellulose) (HPC) 93 % of control | dose: 200.0 mg/kg/injection, schedule: Q04DX002 (ip), vehicle: Klucel (hydroxypropylcellulose) (HPC) 97 % of control | dose: 400.0 mg/kg/injection, schedule: Q04DX002 (ip), vehicle: Klucel (hydroxypropylcellulose) (HPC) 101 % of control

CCC(N)C(O)C(Cl)(Cl)Cl (stereo not drawn)
inactive: [10] 103 % of control | [5] 89 % of control | [11] 98 % of control | [12] 109 % of control

COc1ccc(C(=O)N/N=C/c2ccc(C)cc2)cc1
inactive: [2] 102 % of control | [3] 102 % of control | [4] 105 % of control

CC(=O)Oc1ccc(/C=C(\NC(=O)c2ccccc2)C(=O)O)cc1
inactive: [7] 95 % of control | [8] 91 % of control | [9] 91 % of control

CC1=CC(C)(C)Nc2ccc(Nc3ccccc3)cc21
inactive: dose: 75.0 mg/kg/injection, schedule: Q01DX001 (ip), vehicle: saline 101 % of control | dose: 150.0 mg/kg/injection, schedule: Q01DX001 (ip), vehicle: saline 96 % of control

OC1C=NC=N1 (stereo not drawn)
inactive: dose: 100.0 mg/kg/injection, schedule: Q04DX003 (ip), vehicle: saline 92 % of control | dose: 200.0 mg/kg/injection, schedule: Q04DX003 (ip), vehicle: saline 109 % of control | dose: 400.0 mg/kg/injection, schedule: Q04DX003 (ip), vehicle: saline 95 % of control
